Consider 14 molecules from patent US20250228239A1, “MOLECULES HAVING PESTICIDAL UTILITY, AND INTERMEDIATES, COMPOSITIONS, AND PROCESSES, RELATED THERETO” (priority 2024, published 2025).

Holding throughout (assay type): in vivo
The subject of experiment [1] is Cabbage Looper (Trichoplusia ni, TRIPNI). Nature of the experiment: Bioassays on Cabbage Looper (CL), 128-well diet tray assay. The note with it: Trichoplusia ni. In short, it runs like this:
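Each of eight wells receives artificial diet treated at 50 μg/cm^2 with the test molecule, then one to five second-instar larvae. Incubation runs five to seven days at 25° C with a 14:10 light-dark cycle under vented covers. Mortality is scored per well as a percentage and averaged.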

Experiment [2] concerns Yellow Fever Mosquito (Aedes aegypti, AEDSAE). The note with it: for YFM rating: Table ABC / ABC-DP rating. The essentials: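 Larvae ~1 day old, in liver powder/water; compound from 4000 ppm DMSO stock diluted with water/acetone (90:10); 6 reps; lidded, RT, 3 d; mortality scored per well, rated.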
In experiment [3] the test system is Beet Armyworm (Spodoptera exigua, LAPHEG). Nature of the experiment: Bioassays on Beet Armyworm (BAW), 128-well diet tray assay. Particulars: Spodoptera exigua. In short, it runs like this:
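Percent larval mortality, averaged across eight wells, scored after five to seven days at 25° C. under 14:10 light-dark. Each well held one to five second instars feeding on diet dosed at 50 μg/cm^2 with compound from 90:10 acetone-water, solvent dried off.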

Setting [4] is: Cabbage Looper, Table ABC / ABC-DP rating, read-out: CL rating.
Setting [5] is: Beet Armyworm, Table ABC / ABC-DP rating, read-out: BAW rating.
Where [6] appears, read: Cabbage Looper, rating class, read-out: CL.
Setting [7] is: Yellow Fever Mosquito, rating class.
The mark [8] stands for this setting: Beet Armyworm, rating class, read-out: BAW.
Where [9] appears, read: Table ABC: Biological Results, species CL, read-out: CL.
Setting [10] is: Table ABC: Biological Results, species YFM.
Where [11] appears, read: Table ABC: Biological Results, species BAW, read-out: BAW.

Where two headings read alike, the source gives them in different places.

As for `O=C(NCC(F)(F)F)c1cc(NC(=O)[C@H]2[C@H](c3cc(F)c(F)c(Br)c3)C2(Cl)Cl)ccc1Cl` (relative stereo) [F2003, trans-5-(3-(3-Bromo-4,5-difluorophenyl)-2,2-dichlorocyclopropane-1-carboxamido)-2-chloro-N-(2,2,2-trifluoroethyl)benzamide], the pest or weed control at 50 µg/cm2 in experiment [1] (setting [4]) and in experiment [3] (setting [5]) was 50 to 100% throughout. In addition, the YFM rating entry in experiment [2] (Yellow Fever Mosquito) is recorded as “A (80–100)”.

In the case of `CC(OC(F)(F)F)C(=O)Nc1c(F)ccc(NC(=O)c2cc(NC(=O)[C@H]3[C@H](c4ccc(Cl)c(Cl)c4)C3(Cl)Cl)ccc2Cl)c1F` (stereo partly drawn) [F1767, 2-Chloro-5-((1R,3R)-2,2-dichloro-3-(3,4-dichlorophenyl)cyclopropane-1-carboxamido)-N-(2,4-difluoro-3-(2-(trifluoromethoxy)propanamido)phenyl)benzamide], the pest or weed control at 50 µg/cm2 in experiment [1] (setting [4]) and in experiment [3] (setting [5]) was 50 to 100% in each case. In experiment [2] (Yellow Fever Mosquito), the YFM rating result is given as “A (80–100)”.

For the molecule `CC(OCC1CC1)C(=O)Nc1c(F)ccc(NC(=O)c2cc(NC(=O)[C@H]3[C@H](c4ccc(F)c(C(F)(F)F)c4)C3(Cl)Cl)ccc2Cl)c1F` (stereo partly drawn) [F1745, 2-Chloro-N-(3-(2-(cyclopropylmethoxy)propanamido)-2,4-difluorophenyl)-5-((1R,3R)-2,2-dichloro-3-(4-fluoro-3-(trifluoromethyl)phenyl)cyclopropane-1-carboxamido)benzamide], the pest or weed control at 50 µg/cm2 in experiment [1] (setting [6]) and in experiment [3] (setting [8]) was 50 to 100% throughout. Besides, the YFM result in experiment [2] (setting [7]) is “A (80–100)”.

With `Cc1c(N)ccc(NC(=O)c2cc(NC(=O)[C@H]3[C@H](c4cc(Cl)cc(Cl)c4)C3(Cl)Cl)ccc2Cl)c1C` (relative stereo) [F1229, trans-N-(4-amino-2,3-dimethylphenyl)-2-chloro-5-(2,2-dichloro-3-(3,5-dichlorophenyl)cyclopropane-1-carboxamido)benzamide], the pest or weed control at 50 µg/cm2 in experiment [1] (setting [9]) and in experiment [3] (setting [11]) was 50 to 100% each time. In experiment [2] (setting [10]), the YFM entry is reported as “A (80–100)”.

`CC(=O)Nc1c(F)ccc(N(C)C(=O)c2cc(NC(=O)[C@H]3[C@H](c4ccc(F)c(C(F)(F)F)c4)C3(Cl)Cl)ccc2Cl)c1F` [F1799, N-(3-Acetamido-2,4-difluorophenyl)-2-chloro-5-((1R,3R)-2,2-dichloro-3-(4-fluoro-3-(trifluoromethyl)phenyl)cyclopropane-1-carboxamido)-N-methylbenzamide]: the pest or weed control at 50 µg/cm2 in experiment [1] (setting [4]) and in experiment [3] (setting [5]) was 50 to 100% throughout. For the same molecule, the YFM rating entry in experiment [2] (Yellow Fever Mosquito) is “A (80–100)”.

For `N#CCC(=O)Nc1c(Cl)ccc(NC(=O)c2cc(NC(=O)[C@H]3[C@H](c4ccc(Cl)c(Cl)c4)C3(Cl)Cl)ccc2Cl)c1Cl` [F1415, 2-Chloro-N-(2,4-dichloro-3-(2-cyanoacetamido)phenyl)-5-((1R,3R)-2,2-dichloro-3-(3,4-dichlorophenyl)cyclopropane-1-carboxamido)benzamide], the pest or weed control at 50 µg/cm2 in experiment [1] (setting [6]) and in experiment [3] (setting [8]) was 50 to 100% each time. In experiment [2] (setting [7]), the YFM result is “A (80–100)”.

With `O=C(COC(F)(F)F)Nc1c(F)ccc(NC(=O)c2cc(NC(=O)[C@H]3[C@H](c4cc(C(F)(F)F)cc(C(F)(F)F)c4)C3(Cl)Cl)ccc2Cl)c1F` (relative stereo) [F1804, trans-5-(3-(3,5-bis(Trifluoromethyl)phenyl)-2,2-dichlorocyclopropane-1-carboxamido)-2-chloro-N-(2,4-difluoro-3-(2-(trifluoromethoxy)acetamido)phenyl)benzamide], the pest or weed control at 50 µg/cm2 in experiment [1] (setting [4]) and in experiment [3] (setting [5]) was 50 to 100% throughout. Moreover, the YFM rating result in experiment [2] (Yellow Fever Mosquito) is recorded as “A (80–100)”.

As for `O=C(Nc1ccc(F)c(NC(=O)C(F)(F)F)c1F)c1cc(NC(=O)[C@H]2[C@H](c3ccc(Cl)c(Cl)c3)C2(Cl)Cl)ccc1Cl` [F1064, 2-Chloro-5-((1R,3R)-2,2-dichloro-3-(3,4-dichlorophenyl)cyclopropane-1-carboxamido)-N-(2,4-difluoro-3-(2,2,2-trifluoroacetamido)phenyl)benzamide], the pest or weed control at 50 µg/cm2 in experiment [1] (setting [9]) and in experiment [3] (setting [11]) was 50 to 100% each time. In addition, the YFM result in experiment [2] (setting [10]) was “A (80–100)”.

As to `Nc1c(F)ccc(NC(=O)c2cc(NC(=O)[C@H]3[C@@H](c4cc(Cl)c(Cl)c(C(F)(F)F)c4)C3(Cl)Cl)ccc2Cl)c1F` (relative stereo) [F1150, cis-N-(3-Amino-2,4-difluorophenyl)-2-chloro-5-(2,2-dichloro-3-(3,4-dichloro-5-(trifluoromethyl)phenyl)cyclopropane-1-carboxamido)benzamide], the pest or weed control at 50 µg/cm2 in experiment [1] (setting [9]) and in experiment [3] (setting [11]) was 50 to 100% in each case. The YFM entry in experiment [2] (setting [10]) was “A (80–100)”.

Regarding `CC(=O)NCCCNC(=O)c1cc(NC(=O)[C@H]2[C@H](c3cc(Cl)cc(Cl)c3)C2(Cl)Cl)ccc1Cl` (relative stereo) [F2067, trans-N-(3-Acetamidopropyl)-2-chloro-5-(2,2-dichloro-3-(3,5-dichlorophenyl)cyclopropane-1-carboxamido)benzamide], the pest or weed control at 50 µg/cm2 in experiment [1] (setting [4]) and in experiment [3] (setting [5]) was 50 to 100% in each case. Further, in experiment [2] (Yellow Fever Mosquito), the YFM rating result was “A (80–100)”.

`Cc1cc(NCc2ccccc2)ccc1NC(=O)c1cc(NC(=O)[C@H]2[C@H](c3cc(Cl)cc(Cl)c3)C2(Cl)Cl)ccc1Cl` (relative stereo) [F1176, trans-N-(4-(Benzylamino)-2-methylphenyl)-2-chloro-5-(2,2-dichloro-3-(3,5-dichlorophenyl)cyclopropane-1-carboxamido)benzamide]: the pest or weed control at 50 µg/cm2 in experiment [1] (setting [9]) and in experiment [3] (setting [11]) was 50 to 100% in each case. Also, the YFM entry in experiment [2] (setting [10]) is recorded as “A (80–100)”.

Turning to `C=Cc1cc(NC(=O)c2cc(NC(=O)[C@H]3[C@H](c4cc(Cl)cc(Cl)c4)C3(Cl)Cl)ccc2Cl)cc(F)c1F` (relative stereo) [F1317, trans-2-Chloro-5-(2,2-dichloro-3-(3,5-dichlorophenyl)cyclopropane-1-carboxamido)-N-(3,4-difluoro-5-vinylphenyl)benzamide], the pest or weed control at 50 µg/cm2 in experiment [1] (setting [9]) and in experiment [3] (setting [11]) was 50 to 100% throughout. Further, in experiment [2] (setting [10]), the YFM entry was “A (80–100)”.

On to `CCCNC(=O)c1c(Cl)ccc(NC(=O)[C@H]2[C@H](c3ccc(F)c(Cl)c3)C2(Cl)Cl)c1Cl` (relative stereo) [F2022, trans-2,6-Dichloro-3-(2,2-dichloro-3-(3-chloro-4-fluorophenyl)cyclopropane-1-carboxamido)-N-propylbenzamide], for which the pest or weed control at 50 µg/cm2 in experiment [1] (setting [4]) and in experiment [3] (setting [5]) was 50 to 100% throughout. Further, in experiment [2] (Yellow Fever Mosquito), the YFM rating result is listed as “A (80–100)”.

For `Cc1cc([C@@H]2[C@H](C(=O)Nc3ccc(Cl)c(C(=O)NCC(F)(F)F)c3)C2(Cl)Cl)cc(C(F)(F)F)c1F` (relative stereo) [F2015, cis-2-Chloro-5-(2,2-dichloro-3-(4-fluoro-3-methyl-5-(trifluoromethyl)phenyl)-cyclopropane-1-carboxamido)-N-(2,2,2-trifluoroethyl)benzamide], the pest or weed control at 50 µg/cm2 in experiment [1] (setting [4]) and in experiment [3] (setting [5]) was 50 to 100% throughout. Besides, the YFM rating result in experiment [2] (Yellow Fever Mosquito) is recorded as “A (80–100)”.
